The test system of one assay is Caco-2 cells. Nature of the assay: Cholesterol absorption inhibition assay (in vitro), [14C] cholesterol mixed micelles. In kind it is cell-based. The settings on record: Homo sapiens, 24 hours, read-out: cholesterol absorption inhibitory activity; for inhibition at 10 µM: concentration of 10 μM; for inhibition at 12.5 µM: concentration of 12.5 μM. As to the method: This assay measures cholesterol absorption inhibitory activity by adding mixed micelles containing [^14C] cholesterol to cells and measuring cholesterol taken in the cells as oleic acid cholesteryl ester. The assay is conducted after Caco-2 cells are seeded on multi-well plates and cultured (culture medium: DMEM containing 10% fetal bovine serum, 1% non-essential amino acids, 1% penicillin, and 1% streptomycin) for 2 weeks. To each well, the micelle solution (in an amount required to provide the following final concentrations: 600 μM of sodium oleate, 50 μM of phosphatidyl choline, 5 mM of sodium taurocholate, 2.5 μM of cholesterol, and 2.5 μM of [^14C] cholesterol) and a test compound solution (in an amount required to provide the final concentration of 0.5 to 25 μM) or a solvent as a control are added, and incubation is started at 37° C. 24 hours later, the culture medium is removed, and the lipid component is extracted with hexane/2-propanol (3:2, v/v) and applied onto thin-layer silica gel plates. After drying, each plate is eluted with a mixture of hexane, diethyl ether, and acetic acid in a ratio of 83:16:1. The plates are photoexposed on imaging plates and analyzed using BAS-2500 (FUJIFILM). The amounts of light exposure of the areas corresponding to the cholesteryl ester are calculated. Background is measured using a blank space of the plate. Inhibition rates are calculated using values obtained by subtracting the background values from both values of the control and the test sample, respectively, in accordance with the following equation. A test value is calculated as a percentage (%) with respect to the control.
In the Equation 1, A is the control group, BG is a background, and B is the test compound.
The following results were obtained from the measurement by this method on cholesterol absorption inhibitory activity of the compounds of the present invention. The following results were obtained by the evaluation using concentrations of 10 μM and/or 12.5 μM.

Assay [1] relates to hamsters fed a high cholesterol diet. Nature of the assay: Measurement of lipid lowering effect in hamsters fed a high cholesterol diet. The following applies: Mesocricetus auratus, po, 168 h, gavage once daily, 7 days. Format: in vivo, Male Golden Syrian hamsters. In a few lines: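 Male Golden Syrian hamsters (6/group) on 0.5% cholesterol diet, dosed by gavage once daily in corn oil at 0.01 to 10 mg/kg; serum and liver sampled 4 h after last dose. TC, TG and LDL-C measured enzymatically; effects expressed as % suppression versus control and normal-diet groups.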

The mark [2] stands for this setting: read-out: serum TG lowering effect (serum TG lowering rate).
[3] abbreviates: read-out: serum TC lowering effect (suppression rate of an increase in serum TC concentration).

Where two headings read alike, the source gives them in different places.

Regarding `O=C1[C@H](SC[C@H](O)c2ccc(F)cc2)[C@@H](c2ccc(O)c(O)c2)N1c1ccc(-c2cccnc2)cc1` [Example 37, (3R,4R)-3-[(2R)-2-(4-fluorophenyl)-2-hydroxyethylthio]-4-(3,4-dihydroxyphenyl)-1-[4-(pyridin-3-yl)phenyl]azetidin-2-one], in the assay on Caco-2 cells, the inhibition at 10 µM is at least 50%.
For the compound `O=C1[C@H](SC[C@H](O)c2ccc3occc3c2)[C@@H](c2ccc(O)cc2)N1c1ccc(-c2cccnc2)cc1` [Example 31, (3R,4R)-3-((2R)-2-benzo[b]furan-5-yl-2-hydroxyethylthio)-4-(4-hydroxyphenyl)-1-[4-(pyridin-3-yl)phenyl]azetidin-2-one], in the assay with Caco-2 cells, the inhibition at 10 µM was at least 50% and the inhibition at 12.5 µM is at least 60%. In assay [1] (dose 0.01 mg/kg, read-out: serum TC lowering effect (suppression rate of an increase in serum TC concentration)), the inhibition in vivo at 0.01 mg/kg was at least 30%. Also, in assay [1] (setting [2]), the inhibition in vivo at 0.1 mg/kg is at least 20%.
For `COc1ncccc1-c1ccc(N2C(=O)[C@H](SC[C@H](O)c3ccc(Cl)cc3)[C@H]2c2ccc(O)cc2)cc1` [Example 57, (3R,4R)-3-[(2R)-2-(4-chlorophenyl)-2-hydroxyethylthio]-4-(4-hydroxyphenyl)-1-[4-(2-methoxypyridin-3-yl)phenyl]azetidin-2-one], in the assay with Caco-2 cells, the inhibition at 10 µM was at least 50% and the inhibition at 12.5 µM is at least 60%.
As for `O=C1[C@H](SC[C@H](O)c2ccc(F)cc2)[C@@H](c2ccc(O)cc2)N1c1ccc(-c2ccncc2)cc1` [Example 11, (3R,4R)-3-[(2R)-2-(4-fluorophenyl)-2-hydroxyethylthio]-4-(4-hydroxyphenyl)-1-[4-(pyridin-4-yl)phenyl]azetidin-2-one], the inhibition at 10 µM in the assay with Caco-2 cells is at least 50%.
In the case of `Cc1cc(N2C(=O)[C@H](SC[C@H](O)c3ccc(F)cc3)[C@H]2c2ccc(O)cc2)ccc1-c1cccnc1` [Example 47, (3R,4R)-3-[(2R)-2-(4-fluorophenyl)-2-hydroxyethylthio]-4-(4-hydroxyphenyl)-1-[3-methyl-4-(pyridin-3-yl)phenyl]azetidin-2-one], the inhibition at 10 µM with Caco-2 cells is at least 50%.
As for `COc1ccc(-c2ccc(N3C(=O)[C@H](SC[C@H](O)c4ccc(F)cc4)[C@H]3c3ccc(O)cc3)cc2)cn1` [Example 14, (3R,4R)-3-[(2R)-2-(4-fluorophenyl)-2-hydroxyethylthio]-4-(4-hydroxyphenyl)-1-[4-(6-methoxypyridin-3-yl)phenyl]azetidin-2-one], in the assay on Caco-2 cells, the inhibition at 10 µM is at least 50%. Further, the inhibition in vivo at 0.1 mg/kg in assay [1] (setting [2]) was at least 20%.
Take `O=C1[C@H](SC[C@H](O)c2ccc(Cl)c(Cl)c2)[C@@H](c2ccc(O)cc2)N1c1ccc(-c2cccnc2)cc1` [Example 28, (3R,4R)-3-[(2R)-2-(3,4-dichlorophenyl)-2-hydroxyethylthio]-4-(4-hydroxyphenyl)-1-[4-(pyridin-3-yl)phenyl]azetidin-2-one]: in the assay with Caco-2 cells, the inhibition at 10 µM was at least 50%. In addition, the inhibition in vivo at 0.1 mg/kg in assay [1] (read-out: liver TC lowering effect (suppression rate of an increase in liver TC concentration)) and in assay [1] (setting [3]) was at least 50% each time.
For `O=C1[C@H](SCCc2ccccc2)[C@@H](c2ccc(O)cc2)N1c1ccc(-c2cccnc2)cc1` [Example 4, (3R,4R)-4-(4-hydroxyphenyl)-3-(2-phenylethylthio)-1-[4-(pyridin-3-yl)phenyl]azetidin-2-one], in the assay on Caco-2 cells, the inhibition at 10 µM was at least 50% and the inhibition at 12.5 µM was at least 60%.
Consider `Cc1ccc([C@@H](O)CS[C@H]2C(=O)N(c3ccc(-c4cccnc4)cc3)[C@@H]2c2ccc(O)cc2)cc1` [Example 45, (3R,4R)-3-[(2R)-2-hydroxy-2-(4-methylphenyl)ethylthio]-4-(4-hydroxyphenyl)-1-[4-(pyridin-3-yl)phenyl]azetidin-2-one], for which the inhibition at 10 µM in the assay with Caco-2 cells is at least 50%. The inhibition at 12.5 µM with Caco-2 cells was at least 60%. Further, the inhibition in vivo at 0.1 mg/kg in assay [1] (read-out: serum LDL-C lowering effect (suppression rate of an increase in serum LDL-C concentration)) and in assay [1] (setting [3]) was at least 50% each time.
As to `COc1ccc(CS[C@H]2C(=O)N(c3ccc(-c4cccnc4)cc3)[C@@H]2c2ccc(O)cc2)cc1` [Example 19, (3R,4R)-4-(4-hydroxyphenyl)-3-[(4-methoxyphenyl)methylthio]-1-[4-(pyridin-3-yl)phenyl]azetidin-2-one], in the assay on Caco-2 cells, the inhibition at 10 µM is at least 50%.
On to `O=C1[C@H](SC[C@H](O)c2ccc(F)cc2)[C@@H](c2ccc(O)cc2)N1c1ccc(-c2cccnc2)c(F)c1` [Example 36, (3R,4R)-3-[(2R)-2-(4-fluorophenyl)-2-hydroxyethylthio]-1-[3-fluoro-4-(pyridin-3-yl)phenyl]-4-(4-hydroxyphenyl)azetidin-2-one], for which the inhibition at 10 µM in the assay on Caco-2 cells was at least 50%.
As for `CC(=O)c1cncc(-c2ccc(N3C(=O)[C@H](SC[C@H](O)c4ccc(Cl)cc4)[C@H]3c3ccc(O)cc3)cc2)c1` [Example 105, (3R,4R)-3-[(2R)-2-(4-chlorophenyl)-2-hydroxyethylthio]-1-[4-(5-acetylpyridin-3-yl)phenyl]-4-(4-hydroxyphenyl)azetidin-2-one], in the assay with Caco-2 cells, the inhibition at 12.5 µM is at least 60%.
`O=C1[C@H](SC[C@H](O)c2ccc3c(c2)OCCO3)[C@@H](c2ccc(O)cc2)N1c1ccc(-c2cccnc2)cc1` [Example 29, (3R,4R)-3-[(2R)-2-(2H,3H-benzo[3,4-e]1,4-dioxin-6-yl)-2-hydroxyethylthio]-4-(4-hydroxyphenyl)-1-[4-(pyridin-3-yl)phenyl]azetidin-2-one]: the inhibition at 10 µM in the assay on Caco-2 cells is at least 50%.
Regarding `CN(C)c1ccc(-c2ccc(N3C(=O)[C@H](SC[C@H](O)c4ccc(Cl)cc4)[C@H]3c3ccc(O)cc3)cc2)cn1` [Example 88, (3R,4R)-3-[(2R)-2-(4-chlorophenyl)-2-hydroxyethylthio]-1-[4-(6-dimethylaminopyridin-3-yl)phenyl]-4-(4-hydroxyphenyl)azetidin-2-one], the inhibition at 12.5 µM in the assay with Caco-2 cells is at least 60%.
With `Cc1ncccc1-c1ccc(N2C(=O)[C@H](SC[C@H](O)c3ccc(F)cc3)[C@H]2c2ccc(O)cc2)cc1` [Example 54, (3R,4R)-3-[(2R)-2-(4-fluorophenyl)-2-hydroxyethylthio]-4-(4-hydroxyphenyl)-1-[4-(2-methylpyridin-3-yl)phenyl]azetidin-2-one], the inhibition at 10 µM in the assay with Caco-2 cells was at least 50%.
On the same count and under the same terms, with `O=C1[C@H](SC[C@H](O)c2ccc(F)cc2)[C@@H](c2ccc(O)cc2)N1c1ccc(-c2cccnc2F)cc1` [Example 21, (3R,4R)-3-[(2R)-2-(4-fluorophenyl)-2-hydroxyethylthio]-1-[4-(2-fluoropyridin-3-yl)phenyl]-4-(4-hydroxyphenyl)azetidin-2-one] the figure was at least 50%.
Turning to `O=C1[C@H](SC[C@H](O)c2ccc(F)cc2)[C@@H](c2ccc(O)cc2)N1c1ccc(-c2cccnc2)cc1` [Example 1, (3R,4R)-3-[(2R)-2-(4-fluorophenyl)-2-hydroxyethylthio]-4-(4-hydroxyphenyl)-1[4-(pyridin-3-yl)phenyl]azetidin-2-one], in the assay with Caco-2 cells, the inhibition at 12.5 µM is at least 60%.
Take `O=C1[C@H](SC[C@H](O)c2ccc(C(F)(F)F)cc2)[C@@H](c2ccc(O)cc2)N1c1ccc(-c2cccnc2)cc1` [Example 43, (3R,4R)-3-{(2R)-2-hydroxy-2-[4-(trifluoromethyl)phenyl]ethylthio}-4-(4-hydroxyphenyl)-1-[4-(pyridin-3-yl)phenyl]azetidin-2-one]: in the assay with Caco-2 cells, the inhibition at 10 µM was at least 50%.
With `O=C1[C@H](SC[C@H](O)c2ccc(F)cc2)[C@@H](c2ccc(O)cc2)N1c1ccc(-c2cccc3[nH]ccc23)cc1` [Example 13, (3R,4R)-3-[(2R)-2-(4-fluorophenyl)-2-hydroxyethylthio]-4-(4-hydroxyphenyl)-1-[4-(indol-4-yl)phenyl]azetidin-2-one], the inhibition at 10 µM with Caco-2 cells was at least 50%.
The same measure, in the same setting: the result for `COc1cnccc1-c1ccc(N2C(=O)[C@H](SC[C@H](O)c3ccc(F)cc3)[C@H]2c2ccc(O)cc2)cc1` [Example 23, (3R,4R)-3-[(2R)-2-(4-fluorophenyl)-2-hydroxyethylthio]-4-(4-hydroxyphenyl)-1-[4-(3-methoxypyridin-4-yl)phenyl]azetidin-2-one] reads at least 50%.
On the same count and under the same terms, with `O=C1[C@H](SC[C@H](O)c2ccc(F)cc2)[C@@H](c2ccc(O)c(Cl)c2)N1c1ccc(-c2cccnc2)cc1` [Example 39, (3R,4R)-3-[(2R)-2-(4-fluorophenyl)-2-hydroxyethylthio]-4-(3-chloro-4-hydroxyphenyl)-1-[4-(pyridin-3-yl)phenyl]azetidin-2-one] the figure was at least 50%.
